Data as given in the supplement of paper PMC4862054.

What was measured:
Details in all cases: incubation time: 72 h
[1] = tested on: SK-BR-3; experiment: normalised response (% of control), CellTiter-Glo; higher = more viable cells (100 = DMSO, 0 = benzethonium chloride kill control)
Procedure: (§1)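 DSRT, 72 h incubation, CellTox Green / CellTiter-Glo readout. Signal is normalised to DMSO and benzethonium chloride controls. Value is the normalised response at dose 3.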

[2] = tested on: MCF-10A; experiment: as above
Procedure: as §1

[3] = tested on: CAL-51; experiment: as above
Procedure: as §1

[4] = tested on: BT-549; experiment: as above
Procedure: as §1

[5] = tested on: HCC1143; experiment: as above
Procedure: as §1

[6] = tested on: DU-4475; experiment: as above
Procedure: as §1

[7] = tested on: CAL-148; experiment: as above
Procedure: as §1

[8] = tested on: MFM-223; experiment: as above
Procedure: as §1

[9] = tested on: Hs578T; experiment: as above
Procedure: as §1

[10] = tested on: CAL-120; experiment: as above
Procedure: as §1

[11] = tested on: HCC1937; experiment: as above
Procedure: as §1

[12] = tested on: HCC1599; experiment: as above
Procedure: as §1

[13] = tested on: MDA-MB-436; experiment: as above
Procedure: as §1

[14] = tested on: MDA-MB-453; experiment: as above
Procedure: as §1

[15] = tested on: CAL-85-1; experiment: as above
Procedure: as §1

[16] = tested on: MDA-MB-231; experiment: as above
Procedure: as §1

[17] = tested on: MDA-MB-468; experiment: as above
Procedure: as §1

[18] = tested on: HDQ-P1; experiment: as above
Procedure: as §1

[19] = tested on: BT-474; experiment: as above
Procedure: as §1

[20] = tested on: MCF-10A; experiment: normalised response (% of control), CellTox Green; higher = less cell death (100 = DMSO, 0 = benzethonium chloride kill control)
In short: (§2)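 Compound was dispensed into 384-well plates at 5 concentrations in 10-fold steps spanning a 10,000-fold range specific to that compound. Breast cancer cell lines were added as 20 µl suspension and left for 72 h before CellTox Green fluorescence (485/520 nm) and then CellTiter-Glo luminescence, read after 10 min at room temperature. Each reported value is the normalised signal at one concentration, with 0.1 % DMSO set at 100 and a positive kill control at 0 on each plate.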

[21] = tested on: CAL-51; experiment: as above
In short: as §2

[22] = tested on: BT-549; experiment: as above
In short: as §2

[23] = tested on: HCC1143; experiment: as above
In short: as §2

[24] = tested on: DU-4475; experiment: as above
In short: as §2

[25] = tested on: CAL-148; experiment: as above
In short: as §2

[26] = tested on: MFM-223; experiment: as above
In short: as §2

[27] = tested on: Hs578T; experiment: as above
In short: as §2

[28] = tested on: CAL-120; experiment: as above
In short: as §2

[29] = tested on: HCC1599; experiment: as above
In short: as §2

[30] = tested on: MDA-MB-436; experiment: as above
In short: as §2

[31] = tested on: MDA-MB-453; experiment: as above
In short: as §2

[32] = tested on: CAL-85-1; experiment: as above
In short: as §2

[33] = tested on: MDA-MB-231; experiment: as above
In short: as §2

[34] = tested on: MDA-MB-468; experiment: as above
In short: as §2

[35] = tested on: HDQ-P1; experiment: as above
In short: as §2

[36] = tested on: BT-474; experiment: as above
In short: as §2

[37] = tested on: HCC1937; experiment: as above
In short: as §2

Compound | normalised response [1] [%] | normalised response [2] [%] | normalised response [3] [%] | normalised response [4] [%] | normalised response [5] [%] | normalised response [6] [%] | normalised response [7] [%] | normalised response [8] [%] | normalised response [9] [%] | normalised response [10] [%] | normalised response [11] [%] | normalised response [12] [%] | normalised response [13] [%] | normalised response [14] [%] | normalised response [15] [%] | normalised response [16] [%] | normalised response [17] [%] | normalised response [18] [%] | normalised response [19] [%] | normalised response [20] [%] | normalised response [21] [%] | normalised response [22] [%] | normalised response [23] [%] | normalised response [24] [%] | normalised response [25] [%] | normalised response [26] [%] | normalised response [27] [%] | normalised response [28] [%] | normalised response [29] [%] | normalised response [30] [%] | normalised response [31] [%] | normalised response [32] [%] | normalised response [33] [%] | normalised response [34] [%] | normalised response [35] [%] | normalised response [36] [%] | normalised response [37] [%]
CN1CCC(COc2cnc(-c3cccc(Cn4nc(-c5cccc(C#N)c5)ccc4=O)c3)nc2)CC1 (10 nM) | 80.8 | 94.9 | 64.8 | 104 | 101 | 99 | 92.9 | 89.8 | 92.8 | 98.8 | 94.6 | 100 | 89 | 89.2 | 97.2 | 102 | 93.2 | 96.4 | 96.7 | 70 | 83.9 | 103 | 89.6 | 99.5 | 108 | 103 | 76.3 | 95.4 | 101 | 88.8 | 100 | 108 | 98.5 | 73.8 | 115 | 94.1 | –
COc1cc(Nc2ncc3c(n2)-c2ccc(Cl)cc2C(c2c(F)cccc2OC)=NC3)ccc1C(=O)O [Alisertib] (100 nM) | 67.9 | 81.2 | 69.1 | 73.2 | 71.2 | 67 | 102 | 76.3 | 74.2 | 78.1 | 82.8 | 80.3 | 67.6 | 62 | 63.7 | 84 | 33.2 | 87 | 77.2 | 68.7 | 27.8 | 96.1 | 75 | 89.9 | 90.1 | 97 | -59.3 | 92.8 | 92.3 | 68.9 | 93.9 | 77.7 | 69.8 | 18.6 | 101 | 91.7 | 85.9
Nc1ccn([C@@H]2O[C@H](CO)[C@@H](O)[C@@H]2O)c(=O)n1 [Cytarabine] (100 nM) | 80.1 | 110 | 85.8 | 94 | 98.8 | 90.4 | 74.7 | 95.3 | 96.7 | 101 | 98.9 | 88.6 | 95.1 | 141 | 96.5 | 99 | 94.6 | 96.7 | 97.3 | 102 | 88.1 | 113 | 99.4 | 112 | 75.5 | 102 | 106 | 109 | 111 | 81.4 | 108 | 103 | 115 | 103 | 101 | 104 | –
Cc1c2oc3c(C)ccc(C(=O)N[C@@H]4C(=O)N[C@H](C(C)C)C(=O)N5CCC[C@H]5C(=O)N(C)CC(=O)N(C)[C@@H](C(C)C)C(=O)O[C@@H]4C)c3nc-2c(C(=O)N[C@@H]2C(=O)N[C@H](C(C)C)C(=O)N3CCC[C@H]3C(=O)N(C)CC(=O)N(C)[C@@H](C(C)C)C(=O)O[C@@H]2C)c(N)c1=O [Dactinomycin] (10 nM) | 59.2 | 52.2 | 20.4 | 13.3 | 54.7 | 3.42 | 27.2 | 88.9 | 58.7 | 65 | 51 | 102 | 53.4 | 84.7 | 51.7 | 62.1 | 18.7 | 41.5 | 64.6 | 109 | -32.3 | 80.4 | 117 | 74.7 | 17.1 | 104 | 104 | 102 | 99.3 | 90.8 | 91.5 | 69.3 | 43.8 | 84 | 82.8 | 102 | 107
CCN1CCN(c2ccc(Nc3cc(N(C)C(=O)Nc4c(Cl)c(OC)cc(OC)c4Cl)ncn3)cc2)CC1 [NVP-BGJ398] (10 nM) | 97.7 | 98.1 | 58.6 | 99.4 | 100 | 97.8 | 97.2 | 95.8 | 99.9 | 91.4 | 96.9 | 115 | 95.2 | 92.7 | 100 | 93.2 | 99.4 | 104 | 102 | 100 | 76 | 95 | 81.9 | 98.7 | 101 | 89.8 | 92 | 96.6 | 91.5 | 103 | 99.5 | 112 | 99.2 | 154 | – | 98.8 | 106
C=CCNC1=C2C[C@@H](C)C[C@H](OC)[C@H](O)[C@@H](C)/C=C(\C)[C@H](OC(N)=O)[C@@H](OC)/C=C\C=C(/C)C(=O)NC(=CC1=O)C2=O [Tanespimycin] (100 nM) | 44.2 | 50 | 47.6 | 47.2 | 49.5 | 86.4 | 85.5 | 53.7 | 66.7 | 85.8 | 70.8 | 93.8 | 47.3 | 27.9 | 98.8 | 95.9 | 97.3 | 61.1 | 99.3 | 69.5 | 82.5 | 91.7 | 90.8 | 93.8 | 71.8 | 99 | 100 | 90.5 | 103 | 67.8 | 84.5 | 74.2 | – | 111 | 81.7 | 76.6 | 98.7
C[C@]1(c2nc3c(C(N)=O)cccc3[nH]2)CCCN1 [Veliparib] (100 nM) | 95.2 | 96.5 | 76.4 | 101 | 100 | 103 | 96.4 | 98.6 | 102 | 96.5 | 101 | 102 | 99 | 102 | 105 | 105 | 96.5 | 102 | 98.3 | – | 96.9 | 108 | 95.9 | 102 | 103 | 108 | 111 | 98.3 | 115 | 61.1 | 103 | 105 | 95.9 | 107 | 109 | 101 | 87.8
CS(=O)(=O)c1ccc(C(=O)Nc2ccc(Cl)c(-c3ccccn3)c2)c(Cl)c1 [Vismodegib] (100 nM) | 92.7 | 93 | 109 | 101 | 94.1 | 99.4 | 94.6 | 94.4 | 95.5 | 93.1 | 99 | 95.1 | 96 | 88.4 | 98.8 | 94.3 | 96.8 | 99 | 94.4 | 96.2 | 98.4 | 86.2 | 99.2 | 101 | – | 88.8 | 80 | 98.9 | 100 | 91.3 | 93.1 | 105 | 72.6 | 87 | 108 | 92.5 | 97.9
